ChEMBL document CHEMBL1154879, “Discovery of (thienopyrimidin-2-yl)aminopyrimidines as potent, selective, and orally available pan-PI3-kinase and dual pan-PI3-kinase/mTOR inhibitors for the treatment of cancer” (J Med Chem, 2010)
Calls of active or inactive are those of the source. The rule behind the calls is not given here.

Assays:
[1] = target: Phosphatidylinositol 4-phosphate 3-kinase C2 domain-containing subunit beta (Homo sapiens) (UniProt O00750); assay: Inhibition of PIK3C2beta at 1 uM
[2] = target: Phosphatidylinositol 4-phosphate 3-kinase C2 domain-containing subunit alpha (Homo sapiens) (UniProt O00443); assay: Inhibition of PIK3C2alpha at 1 uM
[3] = AUC in Sprague-Dawley rat at 5 mg/kg, po; assay type: ADME, organism-based; parameters: dose 5 mg/kg, route oral; settings: plasma
Mus musculus [4] = assay: Toxicity in human MCF7.1 cells expressing PI3Kalpha mutant xenografted nu/nu mouse assessed as body weight loss at 10 mg/kg, po qd for 21 days; assay type: organism-based; parameters: dose 10 mg/kg, route oral; settings: in vivo, 504 h
[5] = Cmax in nu/nu mouse at 5 mg/kg, po; assay type: ADME, organism-based; parameters: dose 5 mg/kg, route oral; settings: in vivo
PC-3 [6] = assay: Antitumor activity against human PC3 cells xenografted in nu/nu mouse assessed as reduction of tumor volume at 10 mg/kg, po qd for 14 days; assay type: functional; parameters: scale not given: the % may be the effect or the level left
[7] = AUC in cynomolgus monkey at 2 mg/kg, po; assay type: ADME, organism-based, Macaca fascicularis; parameters: dose 2 mg/kg, route oral; settings: plasma
[8] = target: Tyrosine-protein kinase SYK (Homo sapiens, UniProt P43405); assay: Inhibition of SYK
[9] = target: Phosphatidylinositol 3-kinase catalytic subunit type 3 (Homo sapiens) (UniProt Q8NEB9); assay: Inhibition of VPS34 at 1 uM
PC-3 [10] = assay: Antiproliferative activity against human PC3 cells deficient in PTEN in after 3 to 4 days; assay type: functional, cell-based
[11] = AUC in Beagle dog at 2 mg/kg, po; assay type: ADME, organism-based, Canis lupus familiaris; parameters: dose 2 mg/kg, route oral; settings: plasma
[12] = Oral bioavailability in Sprague-Dawley rat at 2 mg/kg; assay type: ADME, organism-based; settings: in vivo
[13] = Cmax in cynomolgus monkey at 2 mg/kg, po; assay type: ADME, organism-based, Macaca fascicularis; parameters: dose 2 mg/kg, route oral; settings: in vivo
[14] = Volume of distribution at steady state in nu/nu mouse at 1 mg/kg, iv; assay type: ADME, organism-based; parameters: dose 1 mg/kg, route intravenous; settings: in vivo, read-out: Vdss
[15] = Oral bioavailability in nu/nu mouse at 5 mg/kg, po; assay type: ADME, organism-based; settings: in vivo
Mus musculus [16] = assay: Toxicity in human PC3 cells xenografted nu/nu mouse assessed as body weight loss at 10 mg/kg, po qd for 14 days; assay type: organism-based, PC-3; parameters: dose 10 mg/kg, route oral; settings: in vivo, 336 h
[17] = Oral bioavailability in cynomolgus monkey at 2 mg/kg, po; assay type: ADME, organism-based, Macaca fascicularis; settings: in vivo
[18] = Half life in nu/nu mouse at 5 mg/kg, po; assay type: ADME, organism-based; parameters: dose 5 mg/kg, route oral; settings: in vivo
[19] = Clearance in Beagle dog at 1 mg/kg, iv; assay type: ADME, organism-based, Canis lupus familiaris; parameters: dose 1 mg/kg, route intravenous; settings: in vivo
[20] = Volume of distribution at steady state in Sprague-Dawley rat at 1 mg/kg, iv; assay type: ADME, organism-based; parameters: dose 1 mg/kg, route intravenous; settings: in vivo, read-out: Vdss
[21] = Protein binding in rat plasma; assay type: ADME, cell-free; settings: read-out: PPB (converted)
[22] = Clearance in Sprague-Dawley rat at 1 mg/kg, iv; assay type: ADME, organism-based; parameters: dose 1 mg/kg, route intravenous; settings: in vivo
[23] = Cmax in Beagle dog at 2 mg/kg, po; assay type: ADME, organism-based, Canis lupus familiaris; parameters: dose 2 mg/kg, route oral; settings: in vivo
[24] = Oral bioavailability in Beagle dog at 2 mg/kg, po; assay type: ADME, organism-based, Canis lupus familiaris; settings: in vivo
Mus musculus [25] = assay: Inhibition of PI3K/Akt/mTOR pathway signaling in PI3Kalpha mutant expressing human MCF7.1 cells xenografted nu/nu mouse assessed as inhibition of Akt Ser473 phosphorylation at 10 mg/kg, po qd for 21 days measured 1 hr after last administered dose on day 21 by electrochemiluminescence assay; assay type: functional
Mus musculus [26] = assay: Inhibition of PI3K/Akt/mTOR pathway signaling in PI3Kalpha mutant expressing human MCF7.1 cells xenografted nu/nu mouse assessed as inhibition of Pras40 Thr246 phosphorylation at 10 mg/kg, po qd for 21 days measured 4 hrs after last administered dose on day 21 by ELISA; assay type: functional
[27] = Cmax in Sprague-Dawley rat at 5 mg/kg, po; assay type: ADME, organism-based; parameters: dose 5 mg/kg, route oral; settings: in vivo
[28] = Clearance in cynomolgus monkey at 1 mg/kg, iv; assay type: ADME, organism-based, Macaca fascicularis; parameters: dose 1 mg/kg, route intravenous; settings: in vivo
Mus musculus [29] = assay: Inhibition of PI3K/Akt/mTOR pathway signaling in PI3Kalpha mutant expressing human MCF7.1 cells xenografted nu/nu mouse assessed as inhibition of S6RP Ser235/236 phosphorylation at 10 mg/kg, po qd for 21 days measured 4 hrs after last administered dose on day 21 by electrochemiluminescence assay; assay type: functional
[30] = AUC in nu/nu mouse at 5 mg/kg, po; assay type: ADME, organism-based; parameters: dose 5 mg/kg, route oral; settings: plasma
[31] = Clearance in Sprague-Dawley rat liver microsomes; assay type: ADME, Microsome
Mus musculus [32] = assay: Inhibition of PI3K/Akt/mTOR pathway signaling in PI3Kalpha mutant expressing human MCF7.1 cells xenografted nu/nu mouse assessed as inhibition of S6RP Ser235/236 phosphorylation at 10 mg/kg, po qd for 21 days measured 1 hr after last administered dose on day 21 by electrochemiluminescence assay; assay type: functional
[33] = Clearance in nu/nu mouse at 1 mg/kg, iv; assay type: ADME, organism-based; parameters: dose 1 mg/kg, route intravenous; settings: in vivo
[34] = target: Phosphatidylinositol 4-kinase beta (Homo sapiens) (UniProt Q9UBF8); assay: Inhibition of PI4Kbeta at 1 uM
Aurora kinase A = target: T1, Aurora kinase A (Homo sapiens, UniProt O14965); assay: Inhibition of Aurora A kinase
T1 sequence (O14965 whole entry): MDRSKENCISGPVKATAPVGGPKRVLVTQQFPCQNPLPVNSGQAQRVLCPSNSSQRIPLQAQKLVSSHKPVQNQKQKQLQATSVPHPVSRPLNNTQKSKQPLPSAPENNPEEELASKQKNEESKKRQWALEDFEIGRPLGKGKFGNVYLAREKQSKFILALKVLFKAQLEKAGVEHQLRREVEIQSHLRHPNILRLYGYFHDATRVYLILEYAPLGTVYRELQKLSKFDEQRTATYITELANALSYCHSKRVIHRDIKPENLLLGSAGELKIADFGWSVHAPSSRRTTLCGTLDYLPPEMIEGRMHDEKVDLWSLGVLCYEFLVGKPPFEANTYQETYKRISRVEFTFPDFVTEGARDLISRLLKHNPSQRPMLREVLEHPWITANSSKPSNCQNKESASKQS

[35] = Volume of distribution at steady state in Beagle dog at 1 mg/kg, iv; assay type: ADME, organism-based, Canis lupus familiaris; parameters: dose 1 mg/kg, route intravenous; settings: in vivo, read-out: Vdss
[36] = Protein binding in cynomolgus monkey plasma; assay type: ADME, cell-free, Macaca fascicularis; settings: read-out: PPB (converted)
[37] = Oral bioavailability in Sprague-Dawley rat at 5 mg/kg, po; assay type: ADME, organism-based; settings: in vivo
[38] = target: Mitogen-activated protein kinase kinase kinase 9 (Homo sapiens, UniProt P80192); assay: Inhibition of MLK1
PC-3 [39] = assay: Antitumor activity against human PC3 cells xenografted in nu/nu mouse assessed as inhibition of tumor growth at 10 mg/kg, po qd for 14 days; assay type: functional; settings: PC-3, 336 h, read-out: TGI
[40] = Volume of distribution at steady state in cynomolgus monkey at 1 mg/kg, iv; assay type: ADME, organism-based, Macaca fascicularis; parameters: dose 1 mg/kg, route intravenous; settings: in vivo, read-out: Vdss
[41] = Protein binding in Beagle dog plasma; assay type: ADME, cell-free, Canis lupus familiaris; settings: read-out: PPB (converted)
Mus musculus [42] = assay: Inhibition of PI3K/Akt/mTOR pathway signaling in PI3Kalpha mutant expressing human MCF7.1 cells xenografted nu/nu mouse assessed as inhibition of Pras40 Thr246 phosphorylation at 10 mg/kg, po qd for 21 days measured 1 hr after last administered dose on day 21 by ELISA; assay type: functional
[43] = Protein binding in mouse plasma; assay type: ADME, cell-free; settings: read-out: PPB (converted)
Mus musculus [44] = assay: Inhibition of PI3K/Akt/mTOR pathway signaling in PI3Kalpha mutant expressing human MCF7.1 cells xenografted nu/nu mouse assessed as inhibition of Akt Ser473 phosphorylation at 10 mg/kg, po qd for 21 days measured 4 hrs after last administered dose on day 21 by electrochemiluminescence assay; assay type: functional
[45] = Antitumor activity against human MCF7.1 cells expressing PI3Kalpha mutant xenografted in nu/nu mouse assessed as inhibition of tumor growth at 10 mg/kg, po qd for 21 days; assay type: functional; settings: MCF7.1, 504 h, read-out: TGI
PC-3 [46] = assay: Antitumor activity against human PC3 cells xenografted in nu/nu mouse assessed as inhibition of tumor growth at 1 mg/kg, po qd for 14 days; assay type: functional, organism-based; parameters: dose 1 mg/kg
[47] = target: Serine/threonine-protein kinase mTOR (Homo sapiens, UniProt P42345)
Mus musculus [48] = assay: Toxicity in human PC3 cells xenografted nu/nu mouse assessed as body weight loss at 1 mg/kg, po qd for 14 days; assay type: organism-based, PC-3; parameters: dose 1 mg/kg, route oral; settings: in vivo, 336 h

Sequence of Phosphatidylinositol 4-phosphate 3-kinase C2 domain-containing subunit beta (Homo sapiens) (O00750 whole entry, the tested form may be a part): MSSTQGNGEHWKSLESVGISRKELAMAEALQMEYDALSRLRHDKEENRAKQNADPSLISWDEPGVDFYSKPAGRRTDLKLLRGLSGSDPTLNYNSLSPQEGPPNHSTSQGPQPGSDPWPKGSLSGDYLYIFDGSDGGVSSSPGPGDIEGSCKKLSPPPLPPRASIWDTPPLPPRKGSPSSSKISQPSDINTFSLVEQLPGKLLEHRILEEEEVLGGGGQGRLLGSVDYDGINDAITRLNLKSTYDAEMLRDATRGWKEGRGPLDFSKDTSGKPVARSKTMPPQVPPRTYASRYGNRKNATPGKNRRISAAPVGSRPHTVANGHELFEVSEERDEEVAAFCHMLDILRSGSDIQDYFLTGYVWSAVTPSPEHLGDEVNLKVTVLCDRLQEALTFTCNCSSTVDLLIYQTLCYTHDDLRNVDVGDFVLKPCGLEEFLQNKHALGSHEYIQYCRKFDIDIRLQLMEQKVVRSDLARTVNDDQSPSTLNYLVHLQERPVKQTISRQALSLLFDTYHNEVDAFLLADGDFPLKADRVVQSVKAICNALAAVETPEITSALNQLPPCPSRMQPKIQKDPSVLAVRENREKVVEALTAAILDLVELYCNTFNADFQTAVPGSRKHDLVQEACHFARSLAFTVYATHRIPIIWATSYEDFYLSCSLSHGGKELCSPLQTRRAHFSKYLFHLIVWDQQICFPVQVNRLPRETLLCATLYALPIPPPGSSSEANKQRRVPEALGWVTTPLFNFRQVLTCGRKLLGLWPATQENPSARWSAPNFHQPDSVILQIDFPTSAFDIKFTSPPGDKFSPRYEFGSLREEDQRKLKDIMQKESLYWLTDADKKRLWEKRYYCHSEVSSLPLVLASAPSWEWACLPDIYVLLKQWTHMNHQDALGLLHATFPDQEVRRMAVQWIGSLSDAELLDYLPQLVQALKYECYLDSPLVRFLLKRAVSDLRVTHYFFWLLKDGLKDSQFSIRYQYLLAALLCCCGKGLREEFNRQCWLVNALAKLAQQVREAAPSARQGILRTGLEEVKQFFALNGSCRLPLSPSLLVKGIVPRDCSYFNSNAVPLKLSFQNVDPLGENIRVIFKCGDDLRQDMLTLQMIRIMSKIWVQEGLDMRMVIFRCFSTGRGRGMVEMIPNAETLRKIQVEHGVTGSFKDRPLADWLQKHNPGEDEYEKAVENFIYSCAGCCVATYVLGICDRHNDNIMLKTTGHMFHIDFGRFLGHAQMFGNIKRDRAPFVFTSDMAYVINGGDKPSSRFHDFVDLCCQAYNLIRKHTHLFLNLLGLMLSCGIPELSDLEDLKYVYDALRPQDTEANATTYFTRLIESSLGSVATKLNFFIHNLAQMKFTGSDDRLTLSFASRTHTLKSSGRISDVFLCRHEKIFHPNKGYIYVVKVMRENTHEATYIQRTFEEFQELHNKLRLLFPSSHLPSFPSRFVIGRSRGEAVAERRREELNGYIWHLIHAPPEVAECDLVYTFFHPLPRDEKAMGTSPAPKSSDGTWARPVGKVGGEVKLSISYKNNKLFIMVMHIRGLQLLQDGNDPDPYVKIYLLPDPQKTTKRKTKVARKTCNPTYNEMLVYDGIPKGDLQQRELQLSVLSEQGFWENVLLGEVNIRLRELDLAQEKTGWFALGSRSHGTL
Sequence of Mitogen-activated protein kinase kinase kinase 9 (P80192 whole entry): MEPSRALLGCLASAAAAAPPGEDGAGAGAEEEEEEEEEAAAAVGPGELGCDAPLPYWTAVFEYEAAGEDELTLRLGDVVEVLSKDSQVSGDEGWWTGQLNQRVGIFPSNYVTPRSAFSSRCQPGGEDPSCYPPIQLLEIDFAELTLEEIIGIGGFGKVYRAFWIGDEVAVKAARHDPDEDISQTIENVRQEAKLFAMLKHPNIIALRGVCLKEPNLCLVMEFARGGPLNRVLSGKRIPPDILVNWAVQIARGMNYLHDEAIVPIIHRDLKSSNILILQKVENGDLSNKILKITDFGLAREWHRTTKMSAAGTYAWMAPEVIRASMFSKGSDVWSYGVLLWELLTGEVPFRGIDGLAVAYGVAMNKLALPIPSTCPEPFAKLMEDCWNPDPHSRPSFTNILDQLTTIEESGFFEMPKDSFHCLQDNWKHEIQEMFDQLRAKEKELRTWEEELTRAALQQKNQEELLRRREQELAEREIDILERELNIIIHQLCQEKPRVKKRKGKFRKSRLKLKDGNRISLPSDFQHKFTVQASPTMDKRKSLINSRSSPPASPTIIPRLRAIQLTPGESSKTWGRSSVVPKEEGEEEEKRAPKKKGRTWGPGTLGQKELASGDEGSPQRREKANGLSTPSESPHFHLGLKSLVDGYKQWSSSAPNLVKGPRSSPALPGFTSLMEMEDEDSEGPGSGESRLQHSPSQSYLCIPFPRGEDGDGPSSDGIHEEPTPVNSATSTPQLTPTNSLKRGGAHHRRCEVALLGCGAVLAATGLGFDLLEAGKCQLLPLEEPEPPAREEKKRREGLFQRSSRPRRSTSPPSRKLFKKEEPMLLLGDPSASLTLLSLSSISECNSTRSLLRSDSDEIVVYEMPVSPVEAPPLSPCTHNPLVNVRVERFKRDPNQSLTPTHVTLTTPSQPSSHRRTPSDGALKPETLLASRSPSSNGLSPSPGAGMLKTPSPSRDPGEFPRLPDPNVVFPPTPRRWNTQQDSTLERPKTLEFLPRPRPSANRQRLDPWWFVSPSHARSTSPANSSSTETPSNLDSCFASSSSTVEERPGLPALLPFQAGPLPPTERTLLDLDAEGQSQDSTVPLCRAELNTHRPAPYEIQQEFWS
Sequence of Phosphatidylinositol 4-phosphate 3-kinase C2 domain-containing subunit alpha (Homo sapiens) (O00443 whole entry, the tested form may be a part): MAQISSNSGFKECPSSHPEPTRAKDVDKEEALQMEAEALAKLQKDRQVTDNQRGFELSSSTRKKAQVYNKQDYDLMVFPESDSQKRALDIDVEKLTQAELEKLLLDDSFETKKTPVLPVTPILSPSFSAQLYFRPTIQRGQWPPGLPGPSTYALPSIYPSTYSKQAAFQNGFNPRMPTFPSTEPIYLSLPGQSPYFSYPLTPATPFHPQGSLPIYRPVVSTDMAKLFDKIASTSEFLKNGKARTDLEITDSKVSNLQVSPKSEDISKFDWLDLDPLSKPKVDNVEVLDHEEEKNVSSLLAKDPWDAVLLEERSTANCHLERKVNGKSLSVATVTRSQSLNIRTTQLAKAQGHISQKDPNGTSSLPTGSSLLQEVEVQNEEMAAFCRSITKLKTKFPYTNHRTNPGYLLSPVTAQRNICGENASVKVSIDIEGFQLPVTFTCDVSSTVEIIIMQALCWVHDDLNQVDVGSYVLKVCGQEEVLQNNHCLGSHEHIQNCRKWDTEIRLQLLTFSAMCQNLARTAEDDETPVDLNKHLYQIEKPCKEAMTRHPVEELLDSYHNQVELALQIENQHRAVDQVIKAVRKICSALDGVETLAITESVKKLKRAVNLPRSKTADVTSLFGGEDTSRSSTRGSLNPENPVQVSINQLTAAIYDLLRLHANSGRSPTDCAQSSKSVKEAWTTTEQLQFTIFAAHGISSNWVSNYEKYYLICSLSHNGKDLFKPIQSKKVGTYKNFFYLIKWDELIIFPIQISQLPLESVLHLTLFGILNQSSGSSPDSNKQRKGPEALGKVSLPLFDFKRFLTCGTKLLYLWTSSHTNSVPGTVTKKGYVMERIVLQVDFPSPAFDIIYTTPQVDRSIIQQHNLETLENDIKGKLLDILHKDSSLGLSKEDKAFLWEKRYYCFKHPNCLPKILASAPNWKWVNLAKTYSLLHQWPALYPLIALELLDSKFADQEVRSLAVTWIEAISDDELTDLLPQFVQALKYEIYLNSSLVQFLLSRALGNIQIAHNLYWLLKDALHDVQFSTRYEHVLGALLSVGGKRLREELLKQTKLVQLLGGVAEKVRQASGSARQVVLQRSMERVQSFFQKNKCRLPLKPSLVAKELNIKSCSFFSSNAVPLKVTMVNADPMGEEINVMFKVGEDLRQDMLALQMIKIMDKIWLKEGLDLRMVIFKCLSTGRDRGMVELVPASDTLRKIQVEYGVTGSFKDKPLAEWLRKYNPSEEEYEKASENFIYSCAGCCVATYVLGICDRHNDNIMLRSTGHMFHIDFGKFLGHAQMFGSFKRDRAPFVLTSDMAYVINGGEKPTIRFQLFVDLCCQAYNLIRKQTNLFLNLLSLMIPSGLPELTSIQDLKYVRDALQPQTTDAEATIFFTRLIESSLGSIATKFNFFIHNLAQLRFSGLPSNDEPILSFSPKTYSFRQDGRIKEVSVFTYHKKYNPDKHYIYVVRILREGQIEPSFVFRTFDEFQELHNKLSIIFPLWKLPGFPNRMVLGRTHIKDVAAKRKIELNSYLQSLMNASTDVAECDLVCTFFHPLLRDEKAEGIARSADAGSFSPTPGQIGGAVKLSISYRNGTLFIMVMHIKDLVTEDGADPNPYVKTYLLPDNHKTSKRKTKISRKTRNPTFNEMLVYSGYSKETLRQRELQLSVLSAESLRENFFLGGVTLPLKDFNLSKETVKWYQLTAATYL

For `CC(C)(O)c1cc2nc(-c3cnc(N)nc3)nc(N3CCOCC3)c2s1`, the inhibition [1] was 78%, the inhibition [2] was 65% and the AUC [3] was 21 µM·h. For the same molecule, the Activity (Mus musculus [4]) was “Non-toxic”, the Cmax [5] was 2100 nM and the Activity (PC-3 [6]) was 89%. For the same molecule, the AUC [7] was 3.8 µM·h, the IC50 [8] was 371 nM and the inhibition [9] was “inactive”. For the same molecule, the IC50 (PC-3 [10]) was 330 nM, the AUC [11] was 63 µM·h and the bioavailability [12] was 83%. It also gave a Cmax [13] of 1100 nM, a Vd [14] of 2.8 L/kg and a bioavailability [15] of 100%. The Activity (Mus musculus [16]) was “Non-toxic”, the bioavailability [17] was 62% and the half-life [18] was 3.6 h. For the same molecule, the clearance [19] was 1.6 mL/min/kg, the Vd [20] was 2.8 L/kg and the fraction unbound [21] was 0.51. For the same molecule, the clearance [22] was 9 mL/min/kg, the Cmax [23] was 4400 nM and the bioavailability [24] was 100%. For the same molecule, the inhibition in vivo at 10 mg/kg (Mus musculus [25]) was 80%, the inhibition in vivo at 10 mg/kg (Mus musculus [26]) was 88% and the Cmax [27] was 2200 nM. For the same molecule, the clearance [28] was 15 mL/min/kg, the inhibition in vivo at 10 mg/kg (Mus musculus [29]) was 75% and the AUC [30] was 14 µM·h. It also gave a CLint scaled [31] of 23 mL/min/kg, an inhibition in vivo at 10 mg/kg (Mus musculus [32]) of 81% and a clearance [33] of 17 mL/min/kg. For the same molecule, the inhibition [34] was “inactive”, the IC50 (Aurora kinase A) was over 10000 nM and the Vd [35] was 1.6 L/kg. The fraction unbound [36] was 0.21, the bioavailability [37] was 83% and the IC50 [38] was 591 nM. The inhibition in vivo at 10 mg/kg (PC-3 [39]) was 89%, the Vd [40] was 3 L/kg and the fraction unbound [41] was 0.27. The inhibition in vivo at 10 mg/kg (Mus musculus [42]) was 98%, the fraction unbound [43] was 0.36 and the inhibition in vivo at 10 mg/kg (Mus musculus [44]) was 73%. The inhibition in vivo at 10 mg/kg [45] was 73%, the Activity (PC-3 [46]) was “inactive” and the IC50 [47] was 30 nM. For the same molecule, the Activity (Mus musculus [48]) was “Non-toxic”.
